Five compounds from ChEMBL document CHEMBL4616712, “Design and Synthesis of 1,2-Deoxy-pyranose Derivatives of Spliceostatin A toward Prostate Cancer Treatment” (ACS Med Chem Lett, 2020) can be followed below.

For orientation: IC50 means the point on the concentration scale where inhibition reaches its midpoint.

Data set [1] is described as follows: Toxicity in BALB/c mouse assessed as mouse death at 280 nM/body, iv measured after 24 hrs. The data set is classed as organism-based. The conditions noted are these: in vivo, 0.28 µM.
A further data set concerns CWR22R. In words: Suppression of AR-V7 expression in human CWR22Rv1 cells expressing GFP measured after 3 days by FACS assay. As to conditions: 22Rv1, 72 h. The format is functional, cell-based. In general terms: Flow cytometry measures light scatter and fluorescence of single cells or particles in a stream.
A further data set has as its system LNCaP. Kind of data set: Suppression of AR-V7 expression in human LNCAP cells expressing GFP. The data set is classed as functional, cell-based.
Data set [2] can be described thus: Toxicity in BALB/c mouse assessed as mouse death at 280 nM/body, iv administered on day 2 and day 4. The data set is classed as organism-based. The conditions noted are these: in vivo, 0.28 µM.
A short description of data set [3]: Toxicity in BALB/c mouse assessed as effect on weight loss at 280 nM/body, iv administered on day 2 and day 4. The conditions noted are these: in vivo, 0.28 µM. The data set is classed as organism-based.

`CO[C@]1(C)C[C@@]2(CO2)[C@H](O)[C@@H](/C=C/C(C)=C/C[C@@H]2O[C@H](C)[C@H](NC(=O)/C=C\[C@H](C)OC(C)=O)C[C@@H]2C)O1`: the Activity result in data set [1] is “Toxic”. The compound also yielded a concentration for half-maximal inhibition (IC50) in the data set on CWR22R of 0.6 nM.

Take `CC(=O)O[C@@H](C)/C=C\C(=O)N[C@@H]1C[C@H](C)[C@H](C/C=C(C)/C=C/[C@H]2OCC[C@]3(O[C@H]3C)[C@@H]2O)O[C@@H]1C`: inhibition in the data set with CWR22R was half-maximal at 187 nM (IC50). Compound `CC(=O)O[C@@H](C)/C=C\C(=O)N[C@@H]1C[C@H](C)[C@H](C/C=C(C)/C=C/[C@H]2O[C@H](c3ccccc3)C[C@@]3(CO3)[C@@H]2O)O[C@@H]1C` gave an IC50 in the data set on LNCaP of 132 nM. For `CC(=O)O[C@@H](C)/C=C\C(=O)N[C@@H]1C[C@H](C)[C@H](C/C=C(C)/C=C/[C@H]2OCC[C@]3(O[C@@H]3C)[C@@H]2O)O[C@@H]1C`, the IC50 with CWR22R is 202 nM. This lies in the sub-micromolar range. On to `CC(=O)O[C@@H](C)/C=C\C(=O)N[C@@H]1C[C@H](C)[C@H](C/C=C(C)/C=C/[C@H]2OCC[C@@]3(CO3)[C@@H]2O)O[C@@H]1C`, for which, in the data set with CWR22R, half-maximal inhibition (IC50) required 3.3 nM. The Activity entry in data set [2] and in data set [3] was “Non-Toxic” throughout.
